Assay results published in patent publication US8637038B2, “Methods for inhibiting allograft rejection” (Rigel Pharmaceuticals, Inc., priority 2011, dated 2014).
Read-outs that look alike come from different tables or passages of the source.

Tests used:
[1] = tested on: human peripheral blood lymphocytes; assay: Mixed lymphocyte reaction (MLR); type: cell-based
Procedure: (§1) The activity of Compound III and Compound I was assessed in a panel of cell-based assays. Compound III and Compound I are selective inhibitors of JAK1/3-dependent signaling. Data for a non-selective JAK inhibitor (Compound IV) is shown for reference. Mixed lymphocyte reactions (MLRs) were performed by incubating freshly prepared naive human peripheral blood lymphocytes from one donor with CD80+/CD86+ mature Dendritic Cells derived from a different donor for 5 days. The percentage of CD3+/CD71+ (anti-CD3-APC, Clone HIT3a, anti-CD 71-FITC, Clone M-A712; BD Biosciences, San Jose, Calif.) proliferating cells was assessed by fluorescence-activated cell sorting (FACS; BD Bioscience). Interleukin-2 (IL-2)-dependent human primary T cell proliferation was assessed using CellTiter-Glo® Luminescent Cell Viability Assay (Promega, Madison, Wis.). STAT phosphorylation induced by different cytokines in human primary T cells was measured by intracellular FACS analysis (anti-pY694-STAT5 AlexaFluor488, anti-pY701-STAT1 AlexaFluor488, and anti-pY693-STAT4 AlexaFluor488; BD Biosciences). STAT phosphorylation induced by different cytokines was performed in whole blood after red blood cell lysis (Lyse/Fix buffer, BD Biosciences) and methanol permeabilization. Interferon-γ (IFN-γ) signaling was assessed in the U937 monocytic cell line by measuring ICAM-1 surface expression by FACS (ICAM-1-APC, BD Bioscience).

[2] = tested on: JAK1/3; assay: IL-2 T cell phospho-STAT5; type: cell-based; details: Homo sapiens
Procedure: as §1

[3] = tested on: JAK2/Tyk2; assay: IL-12 T cell phospho-STAT4; type: cell-based, human; details: for EC50: Homo sapiens, T-cell, read-out: IL-12 T cell phospho-STAT4 EC50; for inhibition of JAK2/Tyk2-dependent phosphorylation of Stat4 in response to IL-12: human primary T-cells
Procedure: as §1

[4] = tested on: JAK1/2; assay: IFN-γ U937 ICAM-1 surface expression; type: cell-based; details: for EC50: Homo sapiens
Procedure: as §1

[5] = tested on: H1299 lung carcinoma cells; assay: H1299 proliferation; type: cell-based; details: Homo sapiens
Procedure: The erythropoietin (EPO)-dependent survival of cultured human erythroid progenitor cells (CHEPs) was determined using CellTiter-Glo® Luminescent Cell Viability Assay (Promega). Human primary T cell activation was assessed by measuring IL-2 production by ELISA (R&D Systems, Minneapolis, Minn., USA) following plate-bound anti-CD3 and anti-CD28 stimulation (Anti-Human CD3; BD Biosciences; Anti-Human CD28; Immunotech; Prague, Czech Republic). The enzymatic activity of tryptase released by human cultured mast cells (CHMCs) upon stimulation with IgE was quantified by cleavage of the synthetic fluorescent peptide substrate Z-Ala-Lys-Arg-7-amino-4-methylcoumarin (MP Biomedicals, Solon, Ohio, USA) in tryptase buffer. B-cell receptor-dependent Erk phosphorylation was measured in Ramos cells by intracellular FACS (anti-pT202/pY204-ERK1/2-AlexaFluor488; BD Biosciences). Cell proliferation assays were performed using A549 epithelial cells and H1299 lung carcinoma cells using nuclear staining to measure cell numbers (4′6-diamidino-2-phenylindole, dihydrochloride (DAPI; Invitrogen, Darmstadt, Germany)).

[6] = tested on: Lew recipients of heterotopic BN heart transplants; assay: Five-day heart allograft study: H+E histology, ISHLT rejection classification; type: in vivo, rat; details: HD (Compound I 60 mg/kg BID, Compound III 20 mg/kg BID, Tac 4 mg/kg QD); five days after transplantation
Source text: Male Brown Norway (BN) and Lewis (Lew) rats weighing 350 g were purchased from Harlan (Indianapolis, Ind.) and were housed under conventional conditions. All animals were fed standard rat chow and water ad libitum and received humane care in compliance with the Principles of Laboratory Animal Care formulated by the National Society for Medical Research and the Guide for the care and Use of Laboratory Animals published by the National Institutes of Health (National Institutes of Health publication No. 85-23, revised 1985). Allogeneic (BN-to-Lew) and syngeneic (Lew-to-Lew) heterotopic heart transplantations were performed as described previously (Ono et al., J. Thorac. Cardiovasc. Surg. 57:225-229, 1969). In brief, rats were anaesthetized using 2% isoflurane. The donor received an intravenous bolus of 500 I.U. heparin. Cardiac arrest was achieved using 20 ml Bretschneider solution (Custodiol, Dr. F. Koehler Chemie, Bensheim, Germany). […] Heart-beating score was assessed directly after transplantation for each animal from score 0 (no palpable contraction) to 4 (strong and regular contraction). Only animals with beating scores of 4 were included into the study. Compound I and Compound III were provided by Rigel (South San Francisco, Calif.) and Tacrolimus was provided by Astellas (Munich, Germany). All drugs were administrated orally each in two different concentrations: Compound I LD (15 mg/kg BID; n=6) and HD (60 mg/kg BID; n=6); […] Administration of all drugs was performed every day at the same time points. Tacrolimus was applied only once a day (QD) every 24 hours. During administration of Compound I (BID) and Compound III (BID) a 12 hour pause was kept in between each drug application. Lew recipients of heterotopic BN heart transplants were randomly assigned to their group. […] An untreated syngeneic transplant group Lew-Lew was generated as control. Grafts were recovered five days after transplantation and fixed in 4% paraformaldehyde (Science Services, Munich, Germany), dehydrated and embedded in paraffin. […] Waldeck, Carl Roth GmbH, Munster, Germany) and examined by standard light microscopy. The extent of acute cardiac graft rejection in H+E staining was examined by an experienced pathologist according to the 2004 ISHLT working formulation (Stewart et al., J. Heart Lung Transplant. 24:1710-1720, 2005).

[7] = read-out: EC50, proliferative response of human primary T-cells in the mixed lymphocyte reaction
[8] = read-out: EC50, JAK1/3-dependent Stat5 phosphorylation in response to IL-2

SMILES	EC50 ([1]; 120 h, 5 days, CD3+/CD71+ proliferating cells by FACS, read-out: MLR EC50) [nM]	EC50 [1, 7] [nM]	EC50 [2, 8] [nM]	EC50 ([2]; upstream kinases JAK1/3, read-out: IL-2 T cell phospho-STAT5 EC50) [nM]	EC50 ([3]; upstream kinases JAK2/Tyk2) [nM]	inhibition of JAK2/Tyk2-dependent phosphorylation of Stat4 in response to IL-12 [3]	inhibition of JAK1/2-dependent ICAM-1 expression in U937 cells in response to IFN-γ [4]	EC50 ([4]; U-937, upstream kinases JAK1/2, read-out: IFN-γ U937 ICAM-1 EC50) [nM]	EC50 ([5]; NCI-H1299, upstream kinases Multiple, read-out: H1299 proliferation EC50) [nM]	hearts with ISHLT score of 0 [6] [%]	hearts with ISHLT score of 1 [6] [%]	hearts with ISHLT score of 2 [6] [%]	hearts with ISHLT score of 3 [6]	EC50 ([1]; 120 h, read-out: MLR EC50) [nM]	EC50 ([2]; read-out: IL-2 T cell phospho-STAT5 EC50) [nM]	EC50 [3] [nM]	EC50 ([4]; U-937, read-out: IFN-γ U937 ICAM-1 EC50) [nM]	EC50 ([5]; NCI-H1299, read-out: H1299 proliferation EC50) [nM]
COc1cc(Nc2ncc(C)c(Nc3ccc4oc(=O)[nH]c4c3)n2)cc(C)c1F [Compound I, 5-(2-(4-fluoro-3-methoxy-5-methylphenylamino)-5-methylpyrimidin-4-ylamino)benzo[d]oxazol-2(3H)-one]	16 ± 7	16	21	21 ± 9	463	only weakly inhibited	limited inhibition	417 ± 211	3430 ± 1310	17	50	17	17%	–	–	–	–	–
COc1cc(Nc2ncc(C)c(Nc3ccc4oc(=O)[nH]c4c3)n2)cc(C)c1C [Compound III, 5-(2-(3-methoxy-4,5-dimethylphenylamino)-5-methylpyrimidin-4-ylamino)benzol[d]oxazol-2-(3H)-one]	–	22	35	–	–	only weakly inhibited	limited inhibition	–	–	33	50	17	no scores of 3	22 ± 6	35 ± 15	1560 ± 971	791 ± 352	5080 ± 1820
